According to patent US20020119506A1, “Genes encoding UMP kinase, methods for purifying UMP kinase and methods of characterizing UMP kinase” (INSTITUT PASTEUR, priority 2000, published 2002):
“Also recorded” adds a separate entry of the source. Read-outs that look alike come from different tables or passages of the source.

Legend:
[1] = molecular target: T1, UMP kinase from B. subtilis (Bacillus subtilis, UniProt O31749); assay: UMP kinase activity, coupled spectrophotometric assay; assay type: biochemical
T1 sequence (O31749 1-240): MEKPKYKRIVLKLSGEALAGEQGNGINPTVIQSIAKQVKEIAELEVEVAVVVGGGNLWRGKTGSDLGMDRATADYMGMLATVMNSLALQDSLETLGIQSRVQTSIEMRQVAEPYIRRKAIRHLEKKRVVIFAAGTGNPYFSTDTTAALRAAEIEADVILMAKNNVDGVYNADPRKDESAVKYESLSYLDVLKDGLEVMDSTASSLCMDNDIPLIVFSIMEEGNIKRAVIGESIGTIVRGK
Method: Purification of UMP kinase and activity assays. E. coli overproducing the UMP kinase from B. subtilis was disrupted by sonication in 50 mM Tris-HCl (pH 7.4) and 2 mM UTP. The bacterial extract was heated for 10 min at 65° C., then the precipitated proteins were removed by centrifugation at 10,000 g for 30 min. The supernatant was concentrated by ultrafiltration to about 10 mg of protein/ml, then applied to a Sephacryl S-300 HR column (2.5×110 cm) equilibrated with 50 mM Tris-HCl (pH 7.4), 0.1 M NaCl and 2 mM UTP at a flow rate of 10 ml/h. […] Fractions of 1 ml of protein solution were sampled in Eppendorf tubes and stored at different temperatures between 20° C. and −80° C. The UMP kinase activity was determined at 30° C. using a coupled spectrophotometric assay (0.5 ml final volume) on an Eppendorf PCP6121 photometer [Blondin, 1994 #977]. The “standard” reaction medium contained 50 mM Tris-HCl (pH 7.4), 50 mM KCl, 2 mM MgCl2, 1 mM phosphoenolpyruvate, 0.2 mM NADH, 2 mM ATP, 0.5 mM GTP and 2 units each of lactate dehydrogenase, pyruvate kinase and NDP kinase. The crude or pure preparation of UMP kinase was then added, followed two minutes later by 1.3 mM UMP. The decrease in absorbance at 334 nm (between 0.03 and 0.3/min) was then recorded and corrected for secondary reactions, occurring in the absence of UMP. One unit of UMP kinase corresponds to 1 μmol of product formed per min.
The UMP kinase activity was determined at 30° C. using a coupled spectrophotometric assay (0.5 ml final volume) on an Eppendorf PCP6121 photometer. The “standard” reaction medium contained 50 mM Tris-HCl (pH 7.4), 50 mM KCl, 2 mM MgCl2, 1 mM phosphoenolpyruvate, 0.2 mM NADH, 1 or 2 mM ATP, 0.5 mM GTP and 2 units each of lactate dehydrogenase, pyruvate kinase and NDP kinase. The pure preparation of UMP kinase was then added, followed by 0.3 or 1 mM UMP. The decrease in absorbance at 334 nm (between 0.03 and 0.3/min) was then recorded and corrected for secondary reactions occurring in the absence of UMP. One unit of UMP kinase corresponds to 1 μmol of product formed per min.

E. coli UMP kinase [2] = molecular target: E. coli UMP kinase (Escherichia coli, UniProt P0A7E9); details: cited from earlier work
[3] = molecular target: T2, UMP kinase from M. tuberculosis (Mycobacterium tuberculosis, UniProt P9WHK5); assay type: biochemical
[4] = molecular target: UMP kinase from H. influenzae (Haemophilus influenzae, UniProt P43890); assay: UMP kinase activity, coupled spectrophotometric assay; assay type: biochemical
Method: The UMP kinase activity was determined at 30° C. using a coupled spectrophotometric assay (0.5 ml final volume) on an Eppendorf PCP6121 photometer. The “standard” reaction medium contained 50 mM Tris-HCl (pH 7.4), 50 mM KCl, 2 mM MgCl2, 1 mM phosphoenolpyruvate, 0.2 mM NADH, 1 or 2 mM ATP, 0.5 mM GTP and 2 units each of lactate dehydrogenase, pyruvate kinase and NDP kinase. The pure preparation of UMP kinase was then added, followed by 0.3 or 1 mM UMP. The decrease in absorbance at 334 nm (between 0.03 and 0.3/min) was then recorded and corrected for secondary reactions occurring in the absence of UMP. One unit of UMP kinase corresponds to 1 μmol of product formed per min. The specific activities of the recombinant enzymes are the following: […]

[5] = molecular target: T1, UMP kinase from B. subtilis; details: for stabilization of UMP kinase activity on storage (in words): crude bacterial extract, UTP ≧2 mM, ATP and GTP 2 mM each, various temperatures
[6] = molecular target: T1, UMP kinase from B. subtilis; assay: Thermal stability of UMP kinase (FIG. 1)
Method: UMP kinase from B. subtilis overproduced in strain BL21 (DE3)/pDIA17 (over 30% of total E. coli proteins) was recovered in the supernatant after cell breakage in 50 mM Tris-HCl (pH 7.4) and centrifugation. The activity of recombinant UMP kinase declined rapidly upon storage at either room temperature, +4° C. or under frozen state. After 24 h, only 15% of initial UMP kinase activity was recovered. EDTA, thiols, bovine serum albumin, or antiprotease compounds alone or in mixture were ineffective. […] UTP increased the thermal stability of bacterial UMP kinase (FIG. 1), the half maximal inactivation being shifted from 42° C. in the absence of UTP to over 70° C. in the presence of nucleotide.

[7] = molecular target: T2, UMP kinase from M. tuberculosis; details: in the presence of UTP
E. coli UMP kinase [8] = molecular target: T3, E. coli UMP kinase (Escherichia coli, UniProt P0A7E9); assay: UMP kinase activity and activation by guanine nucleotides (comparison enzyme); assay type: biochemical; details: under identical conditions (presence of GTP)
T3 sequence (P0A7E9 whole entry, looked up): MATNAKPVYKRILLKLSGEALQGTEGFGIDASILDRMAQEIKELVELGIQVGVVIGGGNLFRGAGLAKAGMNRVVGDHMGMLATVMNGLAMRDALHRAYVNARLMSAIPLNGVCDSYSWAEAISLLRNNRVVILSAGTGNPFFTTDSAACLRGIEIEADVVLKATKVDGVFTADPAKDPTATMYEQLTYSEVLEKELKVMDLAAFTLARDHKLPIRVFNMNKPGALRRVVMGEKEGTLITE

UMP kinase from H. influenzae, sequence (P43890 whole entry): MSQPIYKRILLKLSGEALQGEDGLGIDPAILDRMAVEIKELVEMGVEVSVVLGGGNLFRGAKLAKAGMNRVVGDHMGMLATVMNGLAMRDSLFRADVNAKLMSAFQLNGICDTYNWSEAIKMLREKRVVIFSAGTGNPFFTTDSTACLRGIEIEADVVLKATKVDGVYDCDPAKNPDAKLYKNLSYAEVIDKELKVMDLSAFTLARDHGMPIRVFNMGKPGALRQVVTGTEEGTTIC
T2 sequence (P9WHK5 whole entry): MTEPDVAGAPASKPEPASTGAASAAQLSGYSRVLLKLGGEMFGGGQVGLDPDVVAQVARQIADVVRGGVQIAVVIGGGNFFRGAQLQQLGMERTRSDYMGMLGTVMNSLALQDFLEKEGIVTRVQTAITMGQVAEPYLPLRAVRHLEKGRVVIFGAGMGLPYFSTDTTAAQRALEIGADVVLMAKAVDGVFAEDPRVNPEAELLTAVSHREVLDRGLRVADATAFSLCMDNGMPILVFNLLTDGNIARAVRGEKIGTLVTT

## O=c1ccn([C@@H]2O[C@H](COP(=O)(O)O)[C@@H](O)[C@H]2O)c(=O)[nH]1 [UMP]
[1]; absence of GTP, ATP 1 mM, rates decline at higher UMP
  UMP concentration at which rates were maximal: 50 to 70 µM
[1]; absence of GTP, ATP constant (1 mM), read-out: Km for UMP
  Km: ~8 µM
[1]; presence of GTP, ATP 1 mM
  UMP concentration at which saturation was attained: 0.2 mM

## Nc1nc2c(ncn2[C@@H]2O[C@H](COP(=O)(O)O)[C@@H](O)[C@H]2O)c(=O)[nH]1 [GMP]
[1]
  activation of UMP kinase by guanine nucleotides (in words): totally ineffective; also recorded: insensitive
E. coli UMP kinase [2]
  activation of E. coli UMP kinase (in words): significant activation; also recorded: activated

## Nc1nc2c(ncn2[C@@H]2O[C@H](COP(=O)(O)OP(=O)(O)OP(=O)(O)O)[C@@H](O)[C@H]2O)c(=O)[nH]1 [GTP]
[1]; 2 mM ATP and 1 mM UTP
  activation of UMP kinase (fold): ten fold activation
[1]; 2 mM ATP and 1 mM UTP, read-out: half maximum activation concentration
  EC50: 100 µM
[1]; absence of GTP
  activity of UMP kinase in the absence of GTP relative to presence: twenty times lower
[3]
  degree of activation by GTP (factor): 2
[4]
  degree of activation by GTP (factor): 3

## Nc1ncnc2c1ncn2[C@H]1C[C@H](O)[C@@H](COP(=O)(O)OP(=O)(O)OP(=O)(O)O)O1 [dATP]
[1]; compared with ATP
  phosphate donor ability: as good as ATP as phosphate donor

## O=c1ccn([C@@H]2O[C@H](COP(=O)(O)OP(=O)(O)OP(=O)(O)O)[C@@H](O)[C@H]2O)c(=O)[nH]1 [UTP]
[1]
  effect of UTP on UMP kinase activity (in words): antagonized the effect of GTP; also recorded: inhibits
[1]; at lower concentration of UMP (50 μM), read-out: I50 of UTP inhibition
  IC50: 50 µM
[1]; presence of GTP, ATP 1 mM, without inhibition by excess of UMP, read-out: apparent Km for UTP
  Km: 30 µM
[5]
  stabilization of UMP kinase activity on storage (in words): stabilized considerably
[6]; in the presence of UTP
  half maximal inactivation temperature: over 70 °C
[7]
  Tm: 67 °C

## O=C(O)CN(CCN(CC(=O)O)CC(=O)O)CC(=O)O [EDTA]
[5]
  stabilization of UMP kinase activity on storage (in words): ineffective

## Nc1nc2c(ncn2[C@H]2C[C@H](O)[C@@H](COP(=O)(O)OP(=O)(O)OP(=O)(O)O)O2)c(=O)[nH]1 [dGTP]
[1]
  activation of UMP kinase by guanine nucleotides (in words): effective but with lower affinities and extent of activation; also recorded: can activate at significant rates

## Nc1nc2c(ncn2[C@@H]2O[C@H](CO)[C@@H](O)[C@H]2O)c(=O)[nH]1 [guanosine]
E. coli UMP kinase [2]
  activation of E. coli UMP kinase (in words): significant activation

## Nc1nc2c(ncn2[C@@H]2O[C@@H]3COP(=O)(O)O[C@H]3[C@H]2O)c(=O)[nH]1 [cGMP]
[4]
  best activator (in words): highest activation and affinity
  nucleotide concentration at which maximal activation is attained: 20 µM
E. coli UMP kinase [2]
  activation of E. coli UMP kinase (in words): significant activation

## Nc1ncnc2c1ncn2[C@@H]1O[C@H](COP(=O)(O)OP(=O)(O)OP(=O)(O)O)[C@@H](O)[C@H]1O [ATP]
[1]; ATP varied, absence or presence of GTP (0.5 mM), UMP 1 mM, read-out: apparent Km for ATP
  Km: 900 µM

## bovine serum albumin: protein additive tested as stabilizer
[5]
  stabilization of UMP kinase activity on storage (in words): ineffective

## Nc1nc2c(ncn2[C@@H]2O[C@H](COP(=O)(O)OP(=O)(O)NP(=O)(O)O)[C@@H](O)[C@H]2O)c(=O)[nH]1 [GMP-PNP]
[1]
  activation of UMP kinase by guanine nucleotides (in words): can activate at significant rates

B1: UMP kinase from B. subtilis: recombinant pyrH gene product of B. subtilis overproduced in E. coli, hexamer (protein)
chain: T1 sequence (O31749 1-240)
[1]; 2 mM ATP, 1 mM UMP
  specific activity of the recombinant enzyme: 25 units/mg of protein
[1]; "standard" assay conditions
  specific activity of purified recombinant protein: 26 U/mg of protein
[1]; in the presence of GTP
  specific activity of the purified enzyme: 25 μmol/min^−1/mg of protein^−1
[5]; after 24 h, crude extract without UTP, room temperature, +4° C. or frozen
  initial UMP kinase activity recovered after storage: 15%
[5]; irrespective of storage temperature (+4° C., −20° C. or −80° C.)
  stability in the absence of UTP (in words): unstable in the absence of the nucleotide
[6]; in the absence of UTP
  half maximal inactivation temperature: 42 °C

B2: UMP kinase from E. coli: comparison enzyme, bacterial UMP kinase from E. coli (protein, UniProt P0A7E9 2-241, looked up)
Uridylate kinase: ATNAKPVYKRILLKLSGEALQGTEGFGIDASILDRMAQEIKELVELGIQVGVVIGGGNLFRGAGLAKAGMNRVVGDHMGMLATVMNGLAMRDALHRAYVNARLMSAIPLNGVCDSYSWAEAISLLRNNRVVILSAGTGNPFFTTDSAACLRGIEIEADVVLKATKVDGVFTADPAKDPTATMYEQLTYSEVLEKELKVMDLAAFTLARDHKLPIRVFNMNKPGALRRVVMGEKEGTLITE
E. coli UMP kinase [8]
  specific activity: 150 μmol/min^−1/mg of protein^−1
